Test [1] concerns the target Prothrombin (Homo sapiens) (UniProt P00734). Briefly: Association constant for thrombin.
The nature of test [2]: Ratio of association constant of thrombin and plasmin.
The target of test [3] is Thrombin & trypsin (Homo sapiens) (UniProt P00734+P07477+P07478+P35030). Briefly: Ratio of association constant of thrombin and trypsin. Format: protein assay.
The nature of test [4]: Ratio of association constant of thrombin and tissue-type plasminogen activator.

Where a SMILES comes first, the peptide text is derived from it. [ ]: non-standard residue; d: D form. dPip = O=C(O)[C@H]1CCCCN1

Take `CCN(CC(=O)N[C@H](C=O)CCCN=C(N)N)C(=O)[C@H]1CCCCN1`: the K ass in test [1] is 33 L/µM. Further, the Ratio came out at 3300 in test [2], 25 in test [3] and 6600 in test [4].
In test [1], `N=C(N)NCCC[C@@H](C=O)NC(=O)CN(Cc1ccccc1)C(=O)[C@H]1CCCCN1` registered a K ass of 10 L/µM. Further, the Ratio is 77 in test [2], 1 in test [3] and 1000 in test [4].
The corresponding values for `CC(C)CN(CC(=O)N[C@H](C=O)CCCN=C(N)N)C(=O)[C@H]1CCCCN1` are 24 L/µM, 480, 15 and 24000.
For `CCCN(CC(=O)N[C@H](C=O)CCCN=C(N)N)C(=O)[C@H]1CCCCN1` the same measures were 34 L/µM, 680, 14 and 8500.
For `CN(CC(=O)N[C@H](C=O)CCCN=C(N)N)C(=O)[C@H]1CCCCN1` the same measures were 22 L/µM, 730, 24 and 5500.
In turn, `N=C(N)NCCC[C@@H](C=O)NC(=O)CN(CCCc1ccccc1)C(=O)[C@H]1CCCCN1` came in with a K ass in test [1] of 24 L/µM. For the same compound, the Ratio was determined as 200 in test [2], 4 in test [3] and 4000 in test [4].
The corresponding values for `N=C(N)NCCC[C@@H](C=O)NC(=O)[C@@H]1CCCN1C(=O)[C@H]1CCCCN1` (H-[dPip]-Pro-Arg-aldehyde) are 200 L/µM, 220, 3.3 and 6700.
For `N=C(N)NCCC[C@@H](C=O)NC(=O)CN(C(=O)[C@H]1CCCCN1)c1ccccc1` the same measures were 16 L/µM, 400, 15 and 4000.
The corresponding values for `CC(C)CCN(CC(=O)N[C@H](C=O)CCCN=C(N)N)C(=O)[C@H]1CCCCN1` are 16 L/µM, 270, 2.7 and 4000.
In turn, `CC(C)N(CC(=O)N[C@H](C=O)CCCN=C(N)N)C(=O)[C@H]1CCCCN1` came in with a K ass in test [1] of 10 L/µM. Besides, the Ratio in test [2] is 10000; in test [3], 20; in test [4], 10000.
For `N=C(N)NCCC[C@@H](C=O)NC(=O)CN(CCc1ccccc1)C(=O)[C@H]1CCCCN1`, the K ass in test [1] is 87 L/µM. For the same compound, the results for the Ratio in test [2], in test [3] and in test [4] were 200, 32 and 14500, respectively.
For `N=C(N)NCCC[C@@H](C=O)NC(=O)CN(CCC1CCCCC1)C(=O)[C@H]1CCCCN1` the same measures were 5.4 L/µM, 16, 0.9 and 770.
